Source: PMC4833932, “Cytotoxicity and cell cycle arrest induced by andrographolide lead to programmed cell death of MDA-MB-231 breast cancer cell line” (Journal of Biomedical Science, 2016)

What was measured:
Type in all cases: cell-based, human
MDA-MB-231 cells [1] = test: Cell cycle analysis by flow cytometry (PI); details: 30 μM
Description: In order to study the stages of the cell cycle affected by andrographolide, flow cytometry analysis of cell cycle was carried out. Cells were seeded in a 6-well tissue culture plate at an initial density of 2.5 × 10^5 cells per well in the presence of andrographolide (30 μM) or vehicle (DMSO) for 24, 36 and 48 h. The treatment medium and the attached cells were collected after trypsinisation and centrifugation at 1000 × g. Cells were then fixed with 70 % ethanol at 4 °C overnight. The resulted pellets were resuspended in PBS having 100 μg/ml RNAse A (Sigma-Aldrich, USA) and 50 μg/ml PI, and then kept in dark at 25 °C for 30 min. Cell cycle phase distribution were monitored on the BD FACSVerse™ (Becton Dickinson, USA) and analyzed by using FACSuite™ software. A total of 10,000 events were recorded.

MDA-MB-231 cells [2] = test: Mitochondrial membrane potential (Rhodamine 123); details: 15-60 μM, 24 and 48 h
Description: The loss of mitochondrial membrane potential (∆ψm) (MMP) is a primary event leading to phosphatidyl serine externalization, which corresponds with the activation of caspase. MMP was quantified by the incorporation of a fluorescent dye Rhodamine 123 [25]. Cells (1 × 10^4 per well) were incubated with different concentrations (15, 30, 45 or 60 μM) of andrographolide in the absence or presence of NAC for 24 and 48 h. Positive control was obtained with a mitochondrial uncoupling agent, carbonyl cyanide m-chloro-phenylhydrazone (CCCP; 20 μM) for 30 min. The treated cells were washed twice with chilled PBS before incubation with Rhodamine 123 (5 μg/ml) and kept at 37 °C for 15 min. The fluorescence intensity was detected using an emission filter of 535 nm. Same experiment was also performed using MCF-7 cells.

caspase-9 = test: Caspase activity assay (fluorometric, LEHD-AFC) in MDA-MB-231 cells; details: 0-60 μM, 24 h
Description: MDA-MB-231 cells (1 × 10^5 cells per ml) were incubated with different concentrations of andrographolide (0, 15, 30, 45 and 60 μM) for 24 h and then centrifuged to detect caspase-3 and caspase-9 activation using caspase fluoremetric protease assay kit following manufacturer’s instructions. Briefly, cells were lysed in RIPA buffer supplemented with protease inhibitor cocktail and 10 μl lysate were diluted with 10 μl substrate buffer (1:1) containing 100 μM each of fluorogenic substrate, DEVD-AFC and LEHD-AFC for caspase-3 and caspase-9 respectively, and was then incubated for 90 min at 37 °C. Reactions were stopped using 0.2 mM sodium phosphate buffer (pH 7.5) and fluorescence was quantified by a spectrofluorometer (excitation, 405 nm; emission, 505 nm). Experiment was also performed using MCF-7 cells.

C=C1CC[C@@H]2[C@](C)(CO)[C@H](O)CC[C@@]2(C)[C@@H]1C/C=C1/C(=O)OC[C@H]1O [andrographolide]
decrease in the cell number at the G1/G0 phase over the control (MDA-MB-231 cells [1]; 24 h): 24.75 ± 0.5% | increase in S population over the untreated control (MDA-MB-231 cells [1]; 24 h): 9.91 ± 0.3% | decrease in the cell number at the G1/G0 phase over the control (MDA-MB-231 cells [1]; 36 h): 28.86 ± 0.7% | increase in S population over the untreated control (MDA-MB-231 cells [1]; 36 h): 14.21 ± 0.2% | decrease in the cell number at the G1/G0 phase over the control (MDA-MB-231 cells [1]; 48 h): 33.53 ± 1.1% | MMP level (MDA-MB-231 cells [2]): significant (P < 0.01) drop of MMP level | activation of caspase-9 (caspase-9): gradual dose-dependent activation
